The results in this text go back to ChEMBL document CHEMBL4673355, “Thiacalixarene based quaternary ammonium salts as promising antibacterial agents” (Bioorg Med Chem, 2021).

Values joined by “and” are separate entries in the source; they are usually repeats but may differ in a detail not shown here. Identical values can stand only once. Some results are limits rather than exact numbers.

The test system of data set [1] is Enterococcus faecalis. The experiment in a line: Antibacterial activity against Enterococcus faecalis ATCC 29212 by CLSI broth microdilution method. The data set is classed as functional.
The test system of another data set is Pseudomonas. Kind of data set: Antibacterial activity against methicillin- resistant Pseudomonas spp. clinical isolate 6 assessed as reduction in bacterial growth incubated for 24 hrs by CLSI broth microdilution method. Type of data set: functional.
Data set [2] relates to Staphylococcus aureus. Kind of data set: Antibacterial activity against methicillin- resistant Staphylococcus aureus 983 clinical isolate assessed as reduction in bacterial growth incubated for 24 hrs by CLSI broth microdilution method. The data set is classed as functional.
The test system of data set [3] is Staphylococcus aureus. Kind of data set: Bactericidal activity against Staphylococcus aureus ATCC 29213 assessed as reduction in bacterial growth incubated for 24 hrs followed by replating on MH broth and further incubated for 24 hrs by CLSI broth microdilution method. Particulars: Staphylococcus aureus, ATCC 29213; time 48 hrs; read-out: MBC. The data set is classed as functional.

The test system of data set [4] is Bacillus subtilis. The experiment in a line: Antibacterial activity against Bacillus subtilis 168 assessed as reduction in bacterial growth incubated for 24 hrs by CLSI broth microdilution method. Type of data set: functional.
Another data set deals with Klebsiella pneumoniae. Kind of data set: Bactericidal activity against Klebsiella pneumoniae ATCC 1813 assessed as reduction in bacterial growth incubated for 24 hrs followed by replating on MH broth and further incubated for 24 hrs by CLSI broth microdilution method. Type of data set: functional.
The nature of data set [5]: Antibacterial activity against […] resistant Moraxella sp.764 clinical isolate assessed as reduction in bacterial growth incubated for 24 hrs by CLSI broth microdilution method. Particulars: Moraxella catarrhalis. The data set is classed as functional.
Data set [6] concerns Acinetobacter. The experiment in a line: Antibacterial activity against […] resistant Acinetobacter spp. clinical isolate 5 assessed as reduction in bacterial growth incubated for 24 hrs by CLSI broth microdilution method. The data set is classed as functional.
Data set [7] relates to Staphylococcus aureus. The experiment in a line: Antibacterial activity against methicillin- resistant Staphylococcus aureus 967 clinical isolate assessed as reduction in bacterial growth incubated for 24 hrs by CLSI broth microdilution method. Type of data set: functional.
Data set [8] can be described thus: Selectivity index, ratio of CC50 for human HSF cells to MIC for Pseudomonas aeruginosa ATCC 27853. Type of data set: toxicity.
A short description of data set [9]: Selectivity index, ratio of CC50 for human HSF cells to MIC for Klebsiella pneumoniae ATCC 1813. The data set is classed as toxicity.
The test system of data set [10] is Staphylococcus epidermidis. The experiment in a line: Bactericidal activity against Staphylococcus epidermidis assessed as reduction in bacterial growth incubated for 24 hrs followed by replating on MH broth and further incubated for 24 hrs by CLSI broth microdilution method. Type of data set: functional. Particulars: Staphylococcus epidermidis, read-out: MBC.

The test system of data set [11] is Pseudomonas aeruginosa. The experiment in a line: Antibacterial activity against Pseudomonas aeruginosa ATCC 27853 assessed as reduction in bacterial growth incubated for 24 hrs by CLSI broth microdilution method. The data set is classed as functional.
The subject of data set [12] is Bacillus subtilis. The experiment in a line: Bactericidal activity against Bacillus subtilis 168 assessed as reduction in bacterial growth incubated for 24 hrs followed by replating on MH broth and further incubated for 24 hrs by CLSI broth microdilution method. Particulars: Bacillus subtilis, 168, 24 h. The data set is classed as functional.
The test system of data set [13] is Acinetobacter. The experiment in a line: Antibacterial activity against […] resistant Acinetobacter spp. clinical isolate 3 assessed as reduction in bacterial growth incubated for 24 hrs by CLSI broth microdilution method. The data set is classed as functional.
A further data set concerns Proteus sp. The experiment in a line: Antibacterial activity against […] resistant Proteus sp. clinical isolate 17 assessed as reduction in bacterial growth incubated for 24 hrs by CLSI broth microdilution method. The data set is classed as functional. Particulars: Proteus sp. (in: enterobacteria).
Data set [14] relates to Staphylococcus epidermidis. The experiment in a line: Antibacterial activity against Staphylococcus epidermidis assessed as reduction in bacterial growth incubated for 24 hrs by CLSI broth microdilution method. The data set is classed as functional.
In data set [15] the test system is Escherichia coli. Kind of data set: Bactericidal activity against Escherichia coli ATCC 25922 assessed as reduction in bacterial growth incubated for 24 hrs followed by replating on MH broth and further incubated for 24 hrs by CLSI broth microdilution method. The data set is classed as functional.
Data set [16] relates to Staphylococcus haemolyticus. Kind of data set: Antibacterial activity against methicillin- resistant Staphylococcus haemolyticus 837 assessed as reduction in bacterial growth incubated for 24 hrs by CLSI broth microdilution method. The data set is classed as functional.
The test system of data set [17] is Staphylococcus aureus. The experiment in a line: Antibacterial activity against methicillin- resistant Staphylococcus aureus 25 clinical isolate assessed as reduction in bacterial growth incubated for 24 hrs by CLSI broth microdilution method. Type of data set: functional.
Data set [18] deals with Staphylococcus aureus. The experiment in a line: Antibacterial activity against methicillin- resistant Staphylococcus aureus 2020 clinical isolate assessed as reduction in bacterial growth incubated for 24 hrs by CLSI broth microdilution method. The data set is classed as functional.
Data set [19] can be described thus: Antibacterial activity against […] resistant Moraxella sp.765 clinical isolate assessed as reduction in bacterial growth incubated for 24 hrs by CLSI broth microdilution method. The data set is classed as functional. Particulars: Moraxella catarrhalis.
Data set [20] can be described thus: Antibacterial activity against […] resistant Moraxella sp.829 clinical isolate assessed as reduction in bacterial growth incubated for 24 hrs by CLSI broth microdilution method. The data set is classed as functional. Particulars: Moraxella catarrhalis.
In data set [21] the test system is Acinetobacter. The experiment in a line: Antibacterial activity against […] resistant Acinetobacter spp. clinical isolate 1 assessed as reduction in bacterial growth incubated for 24 hrs by CLSI broth microdilution method. Type of data set: functional.
The subject of data set [22] is Staphylococcus intermedius. Kind of data set: Antibacterial activity against methicillin- resistant Staphylococcus intermedius 1143 clinical isolate assessed as reduction in bacterial growth incubated for 24 hrs by CLSI broth microdilution method. The data set is classed as functional.
Data set [23] has as its system Pseudomonas aeruginosa. Kind of data set: Bactericidal activity against Pseudomonas aeruginosa ATCC 27853 assessed as reduction in bacterial growth incubated for 24 hrs followed by replating on MH broth and further incubated for 24 hrs by CLSI broth microdilution method. Type of data set: functional.
Data set [24] deals with Klebsiella sp. The experiment in a line: Antibacterial activity against […] resistant Klebsiella sp. clinical isolate 11 assessed as reduction in bacterial growth incubated for 24 hrs by CLSI broth microdilution method. Type of data set: functional.
Data set [25] deals with Klebsiella sp. The experiment in a line: Antibacterial activity against […] resistant Klebsiella sp. clinical isolate 12 assessed as reduction in bacterial growth incubated for 24 hrs by CLSI broth microdilution method. Type of data set: functional.
Data set [26] concerns Escherichia coli. Kind of data set: Antibacterial activity against Escherichia coli ATCC 25922 by CLSI broth microdilution method. Type of data set: functional.
Data set [27] concerns Escherichia coli. The experiment in a line: Bactericidal activity against Escherichia coli ATCC 25922. Type of data set: functional.
Data set [28] deals with Staphylococcus aureus. Kind of data set: Antibacterial activity against Staphylococcus aureus ATCC 29223 by CLSI broth microdilution method. The data set is classed as functional.
Data set [29] deals with Staphylococcus aureus. The experiment in a line: Bactericidal activity against Staphylococcus aureus ATCC 29223. Type of data set: functional.
Data set [30] concerns Pseudomonas aeruginosa. The experiment in a line: Antibacterial activity against Pseudomonas aeruginosa ATCC 27853 by CLSI broth microdilution method. The data set is classed as functional.
In data set [31] the test system is Staphylococcus aureus. Kind of data set: Bactericidal activity against Staphylococcus aureus ATCC 29213. The data set is classed as functional.
In data set [32] the test system is Enterococcus faecalis. The experiment in a line: Bactericidal activity against Enterococcus faecalis ATCC 29212. Type of data set: functional.
In data set [33] the test system is Staphylococcus aureus. Kind of data set: Antibacterial activity against Staphylococcus aureus ATCC 29213 by CLSI broth microdilution method. The data set is classed as functional.
The mark [34] stands for this setting: Enterococcus faecalis, ATCC 29212, read-out: MIC.

Consider `CC(C)(C)c1cc2c(OCCCNC(=N)N)c(c1)Cc1cc(C(C)(C)C)cc(c1OCCCNC(=N)N)Cc1cc(C(C)(C)C)cc(c1OCCCNC(=N)N)Cc1cc(C(C)(C)C)cc(c1OCCCNC(=N)N)C2.O=C(O)C(F)(F)F.O=C(O)C(F)(F)F.O=C(O)C(F)(F)F.O=C(O)C(F)(F)F`, for which the MIC in the data set with Enterococcus faecalis [1] was 4 µg/mL and 8 µg/mL; in the data set on Enterococcus faecalis [1] (setting [34]) it was 8 µg/mL.

With `CCCCCCCCCC[N+](C)(C)CCCNC(=O)COc1c2cc(C(C)(C)C)cc1Sc1cc(C(C)(C)C)cc(c1OCC(=O)NCCC[N+](C)(C)CCCCCCCCCC)Sc1cc(C(C)(C)C)cc(c1OCC(=O)NCCC[N+](C)(C)CCCCCCCCCC)Sc1cc(C(C)(C)C)cc(c1OCC(=O)NCCC[N+](C)(C)CCCCCCCCCC)S2.[Cl-].[Cl-].[Cl-].[Cl-]`, the MIC in the data set on Pseudomonas is above 64 µg/mL; in the data set on Staphylococcus aureus [2], 32 µg/mL; in the data set on Bacillus subtilis [4], 4 µg/mL; in the data set with Bacillus subtilis [4] (Bacillus subtilis, 168, 24 h, read-out: MIC), 4 µg/mL; in data set [5], above 64 µg/mL; in the data set with Acinetobacter [6] it was above 64 µg/mL. The MIC was 32 µg/mL in the data set with Staphylococcus aureus [7]; above 64 µg/mL in the data set with Pseudomonas aeruginosa [11] (24 h); 64 µg/mL in the data set with Pseudomonas aeruginosa [11] (Pseudomonas aeruginosa, ATCC 27853, 24 h, read-out: MIC); above 64 µg/mL with Acinetobacter [13]; above 64 µg/mL in the data set with Proteus sp.; 4 µg/mL in data set [14]. Also, the MIC is 8 µg/mL in data set [14] (Staphylococcus epidermidis, read-out: MIC); 32 µg/mL in data set [16]; 4 µg/mL in the data set on Staphylococcus aureus [17]; 32 µg/mL with Staphylococcus aureus [18]; above 64 µg/mL in data set [19]; above 64 µg/mL in data set [20]. Also, the MIC with Acinetobacter [21] is above 64 µg/mL; in data set [22], 2 µg/mL; with Klebsiella sp. [24] it was above 64 µg/mL; with Klebsiella sp. [25], above 64 µg/mL. For the same molecule, the MBC was 8 µg/mL with Staphylococcus aureus [3]; 32 µg/mL in the data set with Klebsiella pneumoniae; 16 µg/mL in data set [10]; 32 µg/mL in the data set with Bacillus subtilis [12]; 64 µg/mL in the data set on Escherichia coli [15]; above 64 µg/mL in the data set with Pseudomonas aeruginosa [23]. The Ratio in [8] is below 0.5; in [9] it was 1 and 3. For the same molecule, the selectivity ratio in [8] (HSF cells) came out at 0.5.

Consider `N=C(N)NCCc1cc2c(O)c(c1)Cc1cc(CCNC(=N)N)cc(c1O)Cc1cc(CCNC(=N)N)cc(c1O)Cc1cc(CCNC(=N)N)cc(c1O)C2.O=C(O)C(F)(F)F.O=C(O)C(F)(F)F.O=C(O)C(F)(F)F.O=C(O)C(F)(F)F`, for which the MIC was determined as 4 µg/mL in the data set on Escherichia coli [26]; 8 µg/mL against Staphylococcus aureus [28]; 32 µg/mL in the data set with Enterococcus faecalis [1] (setting [34]); 32 µg/mL with Pseudomonas aeruginosa [30]; 8 µg/mL against Staphylococcus aureus [33]. Besides, the MBC was 256 µg/mL with Escherichia coli [27], 256 µg/mL against Staphylococcus aureus [29], 256 µg/mL against Staphylococcus aureus [31] and above 256 µg/mL with Enterococcus faecalis [32].
